Legend:
[1] = molar heat capacity at constant pressure; settings: 100 kPa, Liquid
[2] = 101.33 kPa, Liquid; for speed of sound: Pulse-echo method; for mass density: Vibrating tube method
[3] = molar heat capacity at constant pressure; xn = mol fraction of the nth substance listed; settings: 100 kPa, Liquid

CN1CCCC1=O [N-methylpyrrolidone]
Settings	mass density, 293.15 K [kg/m3]	mass density, 298.15 K [kg/m3]	mass density, 303.15 K [kg/m3]	molar heat capacity at constant pressure, 293.15 K [J/K/mol]	molar heat capacity at constant pressure, 298.15 K [J/K/mol]	molar heat capacity at constant pressure, 303.15 K [J/K/mol]	speed of sound, 293.15 K [m/s]	speed of sound, 298.15 K [m/s]	speed of sound, 303.15 K [m/s]
[1]	–	–	–	165.44	166.22	166.92	–	–	–
[2]	1033.28	1028.26	1023.49	–	–	–	1565.6	1546.1	1527.3

Cc1cccc(Cl)c1 [3-chlorotoluene]
Settings	mass density, 293.15 K [kg/m3]	mass density, 298.15 K [kg/m3]	mass density, 303.15 K [kg/m3]	molar heat capacity at constant pressure, 293.15 K [J/K/mol]	molar heat capacity at constant pressure, 298.15 K [J/K/mol]	molar heat capacity at constant pressure, 303.15 K [J/K/mol]	speed of sound, 293.15 K [m/s]	speed of sound, 298.15 K [m/s]	speed of sound, 303.15 K [m/s]
[1]	–	–	–	175.21	176.46	177.67	–	–	–
[2]	1072.12	1067.23	1062.33	–	–	–	1313.6	1295.5	1277.3

O=C1CCCN1 [2-pyrrolidinone]
Settings	mass density, 293.15 K [kg/m3]	mass density, 298.15 K [kg/m3]	mass density, 303.15 K [kg/m3]	molar heat capacity at constant pressure, 293.15 K [J/K/mol]	molar heat capacity at constant pressure, 298.15 K [J/K/mol]	molar heat capacity at constant pressure, 303.15 K [J/K/mol]	speed of sound, 293.15 K [m/s]	speed of sound, 298.15 K [m/s]	speed of sound, 303.15 K [m/s]
[1]	–	–	–	168.36	169.55	171.18	–	–	–
[2]	1111.28	1107.15	1103.06	–	–	–	1651.4	1635	1618.7

Cc1ccccc1Cl [2-chlorotoluene]
Settings	mass density, 293.15 K [kg/m3]	mass density, 298.15 K [kg/m3]	mass density, 303.15 K [kg/m3]	molar heat capacity at constant pressure, 293.15 K [J/K/mol]	molar heat capacity at constant pressure, 298.15 K [J/K/mol]	molar heat capacity at constant pressure, 303.15 K [J/K/mol]	speed of sound, 293.15 K [m/s]	speed of sound, 298.15 K [m/s]	speed of sound, 303.15 K [m/s]
[1]	–	–	–	176.43	178.21	180.01	–	–	–
[2]	1082.22	1077.34	1072.46	–	–	–	1316.8	1298.7	1280.7

Cc1ccccc1Cl [2-chlorotoluene] + O=C1CCCN1
molar heat capacity at constant pressure [J/K/mol], [3]
Settings	293.15 K	298.15 K	303.15 K
x2 = 0	176.43	178.21	180.01
x2 = 0.0426	177.32	179.22	181.34
x2 = 0.0815	178.2	180.1	182.4
x2 = 0.1243	179.12	181.15	183.61
x2 = 0.1654	180	182.08	184.67
x2 = 0.2067	180.7	182.94	185.64
x2 = 0.2432	181.17	183.62	186.37
x2 = 0.2851	181.73	184.27	186.97
x2 = 0.3215	182.2	184.63	187.49
x2 = 0.3645	182.46	184.96	187.88
x2 = 0.4088	182.43	185.2	188.02
x2 = 0.4426	182.43	185.07	187.93
x2 = 0.4854	182.08	184.93	187.72
x2 = 0.5231	181.74	184.55	187.37
x2 = 0.5612	181.22	183.98	186.88
x2 = 0.5987	180.54	183.29	186.2
x2 = 0.6316	179.75	182.48	185.46
x2 = 0.6724	178.85	181.51	184.4
x2 = 0.7143	177.56	180.26	183.11
x2 = 0.7543	176.48	178.86	181.78
x2 = 0.796	175.15	177.45	180.2
x2 = 0.8342	173.85	176.13	178.66
x2 = 0.8724	172.53	174.47	177.02
x2 = 0.9088	171.32	173.04	175.4
x2 = 0.9426	170.19	171.72	173.87
